# From patent US9499493B2, “2,4-pyrimidinediamine compounds and their uses” (Rigel Pharmaceuticals, Inc., priority 2002, dated 2016)
# pIC50: −log10 of the molar value. Counter-ions that a name gives are not always drawn.
# Experiments:
# [1] = system: cultured human mast cells (CHMC); experiment: CHMC low cell density IgE activation: tryptase assay; assay type: cell-based; settings: anti-IgE
# Procedure, shortened: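 Read-out: tryptase released into supernatant, measured by substrate turnover over 30 min at RT. Low-density CHMC (1000-1500 cells/well, per donor degranulation activity) in MT buffer, 1 hr at 37° C, then anti-IgE challenge 30 min at 37° C.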
# [2] = system: cultured human mast cells (CHMC); experiment: CHMC low cell density ionomycin activation: tryptase assay; assay type: cell-based
Structure (SMILES),pIC50 [1],pIC50 [2],pIC50 ([1]; Dihydrochloride Salt),pIC50 ([2]; Acetic Acid Salt)
"Oc1cccc(Nc2nc(Nc3ccc4oc(CN5CCNCC5)cc4c3)ncc2F)c1 [R926769, 5-Fluoro-N4-(3-hydroxyphenyl)-N2-[2-(N-piperazinomethylene)benzofuran-5-yl]-2,4-pyrimidinediamine Dihydrochloride Salt]",–,< 5.00,5.97,–
"O=C(COc1cccc(Nc2ncc(F)c(Nc3ccc4c(c3)OCCO4)n2)c1)N(CCO)CCO [R926781, N2-[3-[N,N-Bis-(2-hydroxyethylamino)]carbonylmethyleneoxyphenyl]-N4-(3,4-ethylenedioxyphenyl)-5-fluoro-2,4-pyrimidinediamine]",6.24,< 5.00,–,–
"O=C(COc1cccc(Nc2ncc(F)c(Nc3ccc4c(c3)OCCO4)n2)c1)NC(CO)CO [R926784, N2-[3-(N-1,3-Dihydroxy-2-propylamino)carbonylmethyleneoxyphenyl]-N4-(3,4-ethylenedioxyphenyl)-5-fluoro-2,4-pyrimidinediamine]",6.60,< 5.00,–,–
"O=C1OCc2ccc(Nc3ncc(F)c(Nc4ccc5c(c4)OCCO5)n3)cc21 [R926786, N2-(1,1-Dihydroisobenzofuran-1-one-6-yl)-N4-(3,4-ethylenedioxyphenyl)-5-fluoro-2,4-pyrimidinediamine]",6.30,< 5.00,–,–
"Oc1cccc(Nc2ncc(F)c(Nc3ccc4c(c3)OC(F)(F)O4)n2)c1 [R926794, N4-(3,4-Difluoromethylenedioxyphenyl)-5-fluoro-N2-(3-hydroxyphenyl)-2,4-pyrimidinediamine]",5.86,< 5.00,–,–
"CCOC(=O)c1cnc(Nc2cccc(OCC(=O)NC)c2)nc1Nc1ccc2c(c1)OCCO2 [R926800, 5-Ethoxycarbonyl-N4-(3,4-ethylenedioxyphenyl)-N2-[3-(N-methylamino)carbonylmethyleneoxyphenyl]-2,4-pyrimidinediamine]",5.34,< 5.00,–,–
"CCOC(=O)c1cnc(Nc2cccc(OCC(=O)NC)c2)nc1Nc1cc(OC)cc(OC)c1 [R926801, N4-(3,5-Dimethoxyphenyl)-5-ethoxycarbonyl-N2-[3-(N-methylamino)carbonylmethyleneoxyphenyl]-2,4-pyrimidinediamine]",5.00,< 5.00,–,–
Fc1cnc(Nc2cccc(C(F)(F)F)c2)nc1Nc1ccc2c(c1)OCCO2 [R926805],6.12,< 5.00,–,–
"O=C(COc1cccc(Nc2ncc(F)c(Nc3ccc4c(c3)OCCO4)n2)c1)NCCOC(=O)CCCCC1SCC2NC(=O)NC21 (stereo not drawn) [R926811, N4-(3,4-Ethylenedioxyphenyl)-5-fluoro-N2-[3-[N-2-(D)-(+)-biotinylethylamino]carbonylmethyleneoxyphenyl]-2,4-pyrimidinediamine]",5.44,< 5.00,–,–
CNC(=O)c1cc2cccc(Nc3ncc(F)c(Nc4ccc5c(c4)OCCO5)n3)c2[nH]1 [R926815],5.93,< 5.00,–,–
"CNC(=O)COc1cccc(Nc2ncc(F)c(Nc3ccc4c(c3)OCCO4)n2)c1 [R926826, N4-(3,4-Ethylenedioxyphenyl)-5-fluoro-N2-[3-(N-methylamino)carbonylmethyleneoxyphenyl]-2,4-pyrimidinediamine Trifluoro Acetic Acid Salt]",6.21,–,–,< 5.00
"CNC(=O)COc1cc(Nc2ncc(F)c(Nc3ccc4c(c3)OCCO4)n2)ccc1OC [R926828, N4-(3,4-Ethylenedioxyphenyl)-5-fluoro-N2-[4-methoxy-3-(N-methylamino)carbonylmethyleneoxyphenyl]-2,4-pyrimidinediamine]",6.51,< 5.00,–,–
"CNC(=O)COc1cc(Nc2ncc(F)c(Nc3cccc(O)c3)n2)ccc1OC [R926829, 5-Fluoro-N4-(3-hydroxyphenyl)-N2-[4-methoxy-3-(N-methylamino)carbonylmethyleneoxyphenyl]-2,4-pyrimidinediamine]",6.16,< 5.00,–,–
"OB(O)c1cccc(Nc2ncc(F)c(Nc3cccc(B(O)O)c3)n2)c1 [R926836, N2,N4-Bis(3-boronylphenyl)-5-fluoro-2,4-pyrimidinediamine]",5.00,< 5.00,–,–
"OB(O)c1cccc(Nc2ncc(F)c(Nc3ccc4c(c3)OCCO4)n2)c1 [R926837, N2-(3-Boronylphenyl)-N4-(3,4-ethylenedioxyphenyl)-5-fluoro-2,4-pyrimidinediamine]",5.52,< 5.00,–,–

# Second part, led by results:
pIC50 [1],pIC50 [2],pIC50 ([1]; Dihydrochloride Salt),Structure (SMILES),pIC50 ([2]; Acetic Acid Salt)
6.12,< 5.00,–,"CN(CCO)C(=O)COc1cccc(Nc2ncc(F)c(Nc3ccc4c(c3)OCCO4)n2)c1 [R926766, N4-(3,4-Ethylenedioxyphenyl)-5-fluoro-N2-[3-[N-methyl-N-(2-hydroxyethyl)amino]carbonylmethyleneoxyphenyl]-2,4-pyrimidinediamine]",–
5.71,5.10,–,"CCOC(=O)COc1cccc(Nc2nc(Nc3ccc4c(c3)OCCO4)ncc2F)c1 [R926774, N4-(3-Ethoxycarbonylmethyleneoxyphenyl)-N2-(3,4-ethylenedioxyphenyl)-5-fluoro-2,4-pyrimidinediamine]",–
5.46,< 5.00,–,"CCOC(=O)COc1cccc(Nc2nc(Nc3cccc(O)c3)ncc2F)c1 [R926775, N4-(3-Ethoxycarbonylmethyleneoxyphenyl)-5-fluoro-N2-(3-hydroxyphenyl)-2,4-pyrimidinediamine]",–
6.09,< 5.00,–,"CNC(=O)COc1cccc(Nc2nc(Nc3ccc4c(c3)OCCO4)ncc2F)c1 [R926776, N2-(3,4-Ethylenedioxyphenyl)-5-fluoro-N4-[3-(N-methylamino)carbonylmethyeleneoxyphenyl]-2,4-pyrimidinediamine]",–
5.69,< 5.00,–,"CCOC(=O)COc1cccc(Nc2ncc(F)c(Nc3cc(OC)cc(OC)c3)n2)c1 [R926795, N4-(3,5-Dimethoxyphenyl)-N2-(3-ethoxycarbonylmethyleneoxyphenyl)-5-fluoro-2,4-pyrimidinediamine]",–
6.04,< 5.00,–,"CNC(=O)COc1cccc(Nc2ncc(F)c(Nc3cc(OC)cc(OC)c3)n2)c1 [R926796, N4-(3,5-Dimethoxyphenyl)-5-fluoro-N2-[3-(N-methylamino)carbonylmethyleneoxyphenyl]-2,4-pyrimidinediamine]",–
5.65,< 5.00,–,"CCOC(=O)COc1cccc(Nc2ncc(C(=O)OCC)c(Nc3ccc4c(c3)OCCO4)n2)c1 [R926797, N4-(3,4-Ethylenedioxyphenyl)-N2-(3-ethoxycarbonylmethyleneoxyphenyl)-5-ethoxycarbonyl-2,4-pyrimidinediamine]",–
5.63,5.23,–,"CCOC(=O)COc1cccc(Nc2ncc(C(=O)OCC)c(Nc3cccc(O)c3)n2)c1 [R926798, N4-(3-Hydroxyphenyl)-N2-(3-ethoxycarbonylmethyleneoxyphenyl)-5-ethoxycarbonyl-2,4-pyrimidinediamine]",–
< 5.00,< 5.00,–,"CCOC(=O)COc1cccc(Nc2ncc(C(=O)OCC)c(Nc3ccc4c(c3)OC(F)(F)C(F)(F)O4)n2)c1 [R926799, N2-(3-Ethoxycarbonylmethyleneoxyphenyl)-5-ethoxycarbonyl-N4-(3,4-tetrafluoroethylenedioxyphenyl)-2,4-pyrimidinediamine]",–
5.80,5.15,–,"CCOC(=O)COc1cccc(Nc2nc(Nc3cc(OC)cc(OC)c3)ncc2F)c1 [R926804, N2-(3,5-Dimethoxyphenyl)-N4-(3-ethoxycarbonylmethyleneoxyphenyl)-5-fluoro-2,4-pyrimidinediamine]",–
6.11,5.52,–,"CCOC(=O)COc1cccc(Nc2ncc(F)c(Nc3ccc(-n4cnc(Cl)c4Cl)cc3)n2)c1 [R926809, N4-[4-(4,5-Dichloro-1H-imidazol-1-yl)phenyl]-5-fluoro-N2-(3-ethoxycarbonylmethyleneoxyphenyl)-2,4-pyrimidinediamine]",–
5.91,< 5.00,–,"CNC(=O)COc1cccc(Nc2nc(Nc3cc(OC)cc(OC)c3)ncc2F)c1 [R926810, N2-(3,5-Dimethoxyphenyl)-N4-[3-(N-methylamino)carbonylmethyleneoxyphenyl)-5-fluoro-2,4-pyrimidinediamine]",–
6.73,< 5.00,–,"CNC(=O)COc1cccc(Nc2ncc(F)c(Nc3ccc(-n4cnc(Cl)c4Cl)cc3)n2)c1 [R926812, N4-[4-(4,5-Dichloro-1H-imidazol-1-ylphenyl)]-5-fluoro-N2-[3-(N-methylamino)carbonylmethyleneoxyphenyl]-2,4-pyrimidinediamine]",–
5.96,< 5.00,–,"CCOc1ccc(Nc2nc(Nc3cccc(OCC(=O)NC)c3)ncc2F)cc1 [R926827, N4-(4-Ethoxyphenyl)-5-fluoro-N2-[3-(N-methylamino)carbonylmethyleneoxyphenyl]-2,4-pyrimidinediamine]",–
6.44,< 5.00,–,"CNC(=O)COc1cccc(Nc2ncc(F)c(Nc3cccc(Cl)c3)n2)c1 [R926832, N4-(3-Chlorophenyl)-5-fluoro-N2-[3-(N-methylamino)carbonylmethyleneoxyphenyl]-2,4-pyrimidinediamine]",–
5.95,< 5.00,–,"CNC(=O)COc1cccc(Nc2ncc(F)c(Nc3cc(OC)cc(C(F)(F)F)c3)n2)c1 [R926833, 5-Fluoro-N4-(3-methoxy-5-trifluoromethylphenyl)-N2-[3-(N-methylamino)carbonylmethyleneoxyphenyl]-2,4-pyrimidinediamine]",–
6.84,< 5.00,–,"CNC(=O)COc1cccc(Nc2ncc(F)c(Nc3ccc(OC)c(O)c3)n2)c1 [R926834, 5-Fluoro-N4-(3-hydroxy-4-methoxyphenyl)-N2-[3-(N-methylamino)carbonylmethyleneoxyphenyl]-2,4-pyrimidinediamine]",–
6.53,< 5.00,–,"CNC(=O)COc1cccc(Nc2ncc(F)c(Nc3ccc(OC)c(C(F)(F)F)c3)n2)c1 [R926835, 5-Fluoro-N4-(4-methoxy-3-trifluoromethylphenyl)-N2-[3-(N-methylamino)carbonylmethyleneoxyphenyl]-2,4-pyrimidinediamine]",–
